pIC50: −log10 of the molar value.
Columns and labels:
porcine pancreatic PLA2 = porcine pancreatic PLA2 (Sus scrofa, UniProt P00592); assay: Inhibition of porcine pancreatic phospholipase A2 (PLA2); type: biochemical; conditions: pH 8.5, 37°, 5 minutes, 14.0 uM substrate; approximation from semilog plot
Procedure: Inhibition of porcine pancreatic PLA2 was measured by a modification of the assay used by Hirata et al., Proc. Natl. Acad. Sci. USA 77:533 (1980). The enzyme-substrate reaction was run in a total volume of 0.1 mL with the enzyme at a final concentration of 19 units/mL (0.025 ug protein/mL) which gave approximately 4000-8000 dpm of activity in a buffer containing 25 mM Tris, 25 mM glycylglycine, 25 mM CaCl2 and 0.75 mM EDTA (tetra sodium salt), pH 8.5. Compounds to be tested as inhibitors were added to an aliquot of enzyme and incubated for 2 minutes, and then the substrate, [arachidonyl-1-^14 C] L-1-palmitoyl-2-arachidonyl phosphatidylcholine was added to provide a final concentration of 14.0 uM (80,000 dpm). The reaction was allowed to proceed for five minutes at 37°, and then halted by freezing the mixture in a dry ice-ethanol slurry. The arachidonic acid product was separated from unreacted substrate using silica gel columns.
All reactions were run in duplicate. Compounds to be tested were dissolved in 0.2M Tris-Cl, pH 8.5 or dissolved in DMSO and then diluted with Tris-Cl buffer (maximum DMSO concentration, 7%). An approximation of IC50 (the concentration of compound which inhibits the phospholipase activity by 50 percent) was determined for each compound from a semilog plot of percent inhibition versus the final inhibitor concentration.

[1] = system: spontaneous hypertensive rat (SHR); assay: Antihypertensive activity in the spontaneous hypertensive rat (SHR), intravenous; type: in vivo; set-up: key to Blood pressure response: ++: Pronounced decrease in blood pressure (>50 mm Hg); +: Moderate decrease in blood pressure (35-50 mm Hg); ±: Threshold decrease in blood pressure (25-35 mm Hg); NE: No effect observed; conditions: for Blood pressure response: SHR
Procedure: In this procedure, anesthetized rats were dosed intravenously with graded dose levels the test compound on a cumulative dose schedule. The test compound was administered in an aqueous 0.25% methylcellulose vehicle at a volume to body weight ratio of 1 mL/kg. Arterial blood pressure was continuously recorded directly through an arterial cannula and a polygraph. That dose of compound producing a reduction in mean blood pressure of 30 mm Hg, or ED30, was then determined. In this manner, an ED30 of 2.00 mg/kg was determined for compound 13BII.
The antihypertensive activity of other compounds within the scope of the present invention was determined by methods substantially similar to those reported in Example 2, above, except that intravenous dosage levels of 2 and 12 mg/kg were employed. The designation "prolonged" indicates a hypotensive response lasting from 15-30 minutes. The following designations are employed to indicate the magnitude of hypotensive response: […]

[2] = system: tetradecanoyl phorbol acetate (TPA)-induced edema in murine ear; assay: Topical anti-inflammatory activity, TPA-induced mouse ear edema; type: in vivo, male CF1 mice; conditions: in acetone just prior to 1 μg TPA, 4 hours after TPA
Procedure: Topical application of tetradecanoyl phorbol acetate (TPA) to murine skin results in an inflammatory reaction characterized by edema, a dense cellular infiltration 4-6 hours later, and an epidermal hyperplasia 24 hours following application.
To evaluate the antiinflammatory activity of certain compounds within the scope of the present invention, TPA was applied topically to ear epidermal tissue of male CF1 mice 4-6 weeks old. One μg of TPA in acetone was applied topically to one ear, while acetone only was applied to the contralateral ear of each mouse. Test compounds to be evaluated as antiinflammatory agents were applied to both ears in acetone just prior to application of TPA. Four hours after the application of the TPA, the animals were sacrificed, and 6 mm disks of tissue were excised from each treated ear and weighed. The relative amount of edema was then assessed by determining the difference in mass between control and TPA-treated tissue samples.

porcine pancreatic PLA2, sequence (P00592 23-146): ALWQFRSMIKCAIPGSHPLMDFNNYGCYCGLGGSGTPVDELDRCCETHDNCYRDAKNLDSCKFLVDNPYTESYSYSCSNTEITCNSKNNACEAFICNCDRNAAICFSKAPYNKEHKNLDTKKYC

SMILES	pIC50 (porcine pancreatic PLA2)	Blood pressure response ([1]; 2 mg/kg)	Ear Volume Reduction (%) [2]	ED (30 mm Hg) ([1]; Rattus norvegicus, anesthetized SHR, cumulative dose schedule, aqueous 0.25% methylcellulose, read-out: ED30 (dose of compound producing a reduction in mean blood pressure of 30 mm Hg))	Blood pressure response ([1]; 12 mg/kg)
CCCCCCCCCCCCCCCCCCSCC(COP(=O)([O-])OCC[N+](C)(C)C)NC(=O)CCCCCCCCCCCCCCCCC (stereo not shown) [Compound 13BI]	6.26				
CCCCCCCCCCCCCCCCCCSCC(COP(=O)([O-])OCC[N+](C)(C)C)NC(C)=O (stereo not shown) [Compound 10B, 3-Octadecylthio-2-acetamidophosphatidylcholine]	6.28	++ (Pronounced decrease in blood pressure (>50 mm Hg))	10%		
CCCCCCCCCCCCCCCCSCC(COP(=O)([O-])OCC[N+](C)(C)C)NC(C)=O (stereo not shown) [Compound 10C]	5.96				
CCCCCCSCC(COP(=O)([O-])OCC[N+](C)(C)C)NC(C)=O (stereo not shown) [Compound 10E]	4.01				
CCCCCCCCCCCCCCCCCCSCC(COP(=O)([O-])OCC[N+](C)(C)C)NC(=O)OC (stereo not shown) [Compound 13BII, 3-octadecylthio-2-carbomethoxyamidophosphatidylcholine]	4.72	± (Threshold decrease in blood pressure (25-35 mm Hg))		2 mg/kg	++ (Pronounced decrease in blood pressure (>50 mm Hg))
CCCCCCCCSCC(COP(=O)([O-])OCC[N+](C)(C)C)NC(C)=O (stereo not shown) [Compound 10D]	5.05	NE			++ (Pronounced decrease in blood pressure (>50 mm Hg))
CCCCCCCCCCCCCCCCSCC(COP(=O)([O-])OCC[N+](C)(C)C)NC(=O)OC (stereo not shown) [Compound 13CII]	4.74	++ (Pronounced decrease in blood pressure (>50 mm Hg))			
CCCCCCCCCCCCCCCCSCC(COP(=O)([O-])OCC[N+](C)(C)C)NC(=O)c1ccccc1 (stereo not shown) [Compound 13CIV]	5.85	NE	57%		± (Threshold decrease in blood pressure (25-35 mm Hg))
